# Measurements reported in PubChem BioAssay (NCI).
#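 Dose response: 5 concentrations. Exposure: 48 h. Format: 96-well plates. Endpoint: linear interpolation; highest concentration if not reached. TGI denotes the concentration required for complete inhibition of growth.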
# How the values were obtained:
# Assay in all cases: NCI tumour cell line growth inhibition, 48 h
# [1] = tested on: SW-620 colon
# [2] = tested on: HCT-116 colon
# [3] = tested on: DMS 273 small cell lung
# [4] = tested on: HOP-62 NSCLC
# [5] = tested on: EKVX NSCLC
# [6] = tested on: HOP-18 NSCLC
# [7] = tested on: SNB-75 CNS
# [8] = tested on: K-562 leukemia
# [9] = tested on: COLO 205 colon
# [10] = tested on: OVCAR-4 ovarian
# [11] = tested on: M14 melanoma
# [12] = tested on: M19-MEL melanoma
# [13] = tested on: SNB-78 CNS
# [14] = tested on: OVCAR-3 ovarian
# [15] = tested on: 786-0 renal
# [16] = tested on: IGROV1 ovarian
# [17] = tested on: OVCAR-5 ovarian
# [18] = tested on: OVCAR-8 ovarian
# [19] = tested on: HOP-92 NSCLC
# [20] = tested on: HCC-2998 colon
# [21] = tested on: HCT-15 colon
# [22] = tested on: ACHN renal
# [23] = tested on: HT29 colon
# [24] = tested on: DMS 114 small cell lung
# [25] = tested on: CAKI-1 renal
# [26] = tested on: UACC-257 melanoma
# [27] = tested on: SNB-19 CNS
# [28] = tested on: SK-MEL-28 melanoma
# [29] = tested on: RXF-631 renal
# [30] = tested on: MALME-3M melanoma
# [31] = tested on: SK-MEL-2 melanoma
# [32] = tested on: RPMI-8226 leukemia
# [33] = tested on: SK-OV-3 ovarian
# [34] = tested on: NCI-H23 lung
# [35] = tested on: SF-539 CNS
# [36] = tested on: NCI-H226 lung
# [37] = tested on: SF-295 CNS
# [38] = tested on: HL-60(TB) leukemia
# [39] = tested on: TK-10 renal
# [40] = tested on: KM12 colon
# [41] = tested on: RXF 393 renal
# [42] = tested on: SR leukemia
# [43] = tested on: CCRF-CEM leukemia
# [44] = tested on: KM20L2 colon
# [45] = tested on: DLD-1 colon
# [46] = tested on: SK-MEL-5 melanoma
# [47] = tested on: LOX IMVI melanoma
# [48] = tested on: XF 498 CNS
# [49] = tested on: MOLT-4 leukemia
# [50] = tested on: NCI-H522 lung
# [51] = tested on: UACC-62 melanoma
# [52] = tested on: SN12C renal
# [53] = tested on: LXFL 529 NSCLC
# [54] = tested on: UO-31 renal
# [55] = tested on: A549 NSCLC
# [56] = tested on: U251 CNS
# [57] = tested on: NCI-H460 lung
compound,measurement,setting,value
CCCCCCCCCCCCCCCCP(=O)(OC)OC,TGI,[1],28.2 µM
same,TGI,[2],33.1 µM
same,TGI,[3],27.6 µM
same,TGI,[4],24.3 µM
same,TGI,[5],30 µM
same,TGI,[6],28.6 µM
same,TGI,[7],32 µM
same,TGI,[8],44.8 µM
same,TGI,[9],30.7 µM
same,TGI,[10],35.9 µM
same,TGI,[11],30.2 µM
same,TGI,[12],30.3 µM
same,TGI,[13],34.1 µM
same,TGI,[14],31.9 µM
same,TGI,[15],31.4 µM
same,TGI,[16],34.6 µM
same,TGI,[17],27.1 µM
same,TGI,[18],30.9 µM
same,TGI,[19],35.3 µM
same,TGI,[20],30.8 µM
same,TGI,[21],30.2 µM
same,TGI,[22],28 µM
same,TGI,[23],31.6 µM
same,TGI,[24],30.5 µM
same,TGI,[25],30.5 µM
same,TGI,[26],31.8 µM
same,TGI,[27],28.6 µM
same,TGI,[28],31.6 µM
same,TGI,[29],31.3 µM
same,TGI,[30],32.7 µM
same,TGI,[31],30 µM
same,TGI,[32],35 µM
same,TGI,[33],29 µM
same,TGI,[34],31.8 µM
same,TGI,[35],34.9 µM
same,TGI,[36],33.2 µM
same,TGI,[37],32.4 µM
same,TGI,[38],27.3 µM
same,TGI,[39],31 µM
same,TGI,[40],32.2 µM
same,TGI,[41],34.4 µM
same,TGI,[42],37.9 µM
same,TGI,[43],40.1 µM
same,TGI,[44],37.4 µM
same,TGI,[45],31.4 µM
same,TGI,[46],30.7 µM
same,TGI,[47],31.9 µM
same,TGI,[48],25.8 µM
same,TGI,[49],32.3 µM
same,TGI,[50],26.8 µM
same,TGI,[51],27.8 µM
same,TGI,[52],31.3 µM
same,TGI,[53],29.3 µM
same,TGI,[54],24.5 µM
same,TGI,[55],33.4 µM
same,TGI,[56],32.4 µM
same,TGI,[57],31.1 µM
